IC50 data for 13 molecules are collected here from patent US20250074888A1, “PYRIDAZINE DERIVATIVES AS MODULATORS OF NLRP3 INFLAMMASOME AND RELATED METHODS” (Neumora Therapeutics, Inc., priority 2021, published 2025).

For one experiment, the target named is NLRP3 inflammasome (Homo sapiens, UniProt Q96P20). Put plainly: NLRP3 inflammasome activation in THP1 macrophages (LPS priming, nigericin), IL-1β AlphaLISA. The experiment is classed as cell-based. Conditions: PMA-differentiated THP1, LPS 20 ng/ml 3 hrs, compound 1 hr, Nigericin 6.7 uM 3 hrs, supernatant.
A further experiment concerns IL-6. The experiment is described as follows: IL-6 release from LPS-primed, nigericin-treated THP1 macrophages, Hu IL-6 AlphaLISA. Format: cell-based. The note with it: Homo sapiens, THP-1; PMA-differentiated THP1, LPS 20 ng/ml 3 hrs, compound 1 hr, Nigericin 6.7 uM 3 hrs, supernatant.

NLRP3 inflammasome, sequence (Q96P20 whole entry): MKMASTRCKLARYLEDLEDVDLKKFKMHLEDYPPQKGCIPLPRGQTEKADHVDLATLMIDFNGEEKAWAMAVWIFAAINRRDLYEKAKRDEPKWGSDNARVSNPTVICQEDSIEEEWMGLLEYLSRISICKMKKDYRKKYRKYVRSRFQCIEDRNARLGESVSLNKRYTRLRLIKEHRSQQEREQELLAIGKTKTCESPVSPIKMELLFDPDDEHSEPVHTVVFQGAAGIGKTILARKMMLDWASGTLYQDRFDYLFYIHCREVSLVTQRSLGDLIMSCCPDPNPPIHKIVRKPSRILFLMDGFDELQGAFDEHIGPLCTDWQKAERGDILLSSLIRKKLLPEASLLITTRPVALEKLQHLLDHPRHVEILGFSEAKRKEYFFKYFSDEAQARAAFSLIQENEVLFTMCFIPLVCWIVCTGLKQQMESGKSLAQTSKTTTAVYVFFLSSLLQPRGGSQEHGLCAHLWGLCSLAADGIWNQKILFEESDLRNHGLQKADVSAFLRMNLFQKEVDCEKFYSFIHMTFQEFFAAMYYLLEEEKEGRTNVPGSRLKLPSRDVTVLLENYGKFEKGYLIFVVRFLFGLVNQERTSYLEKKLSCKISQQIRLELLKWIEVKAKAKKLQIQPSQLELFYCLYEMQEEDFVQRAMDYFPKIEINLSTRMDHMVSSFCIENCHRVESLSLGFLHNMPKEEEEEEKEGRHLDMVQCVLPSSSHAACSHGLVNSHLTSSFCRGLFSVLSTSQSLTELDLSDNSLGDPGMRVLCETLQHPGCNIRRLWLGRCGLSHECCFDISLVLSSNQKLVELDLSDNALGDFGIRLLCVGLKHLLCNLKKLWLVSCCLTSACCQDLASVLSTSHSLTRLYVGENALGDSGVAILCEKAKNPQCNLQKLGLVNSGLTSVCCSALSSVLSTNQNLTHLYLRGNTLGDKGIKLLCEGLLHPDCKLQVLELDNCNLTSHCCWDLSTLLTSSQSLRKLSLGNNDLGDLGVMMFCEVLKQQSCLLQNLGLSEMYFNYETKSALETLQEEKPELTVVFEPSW

Turning to `Cc1cc(N(C2CC2)[C@@H]2CCCN(C)C2)nnc1-c1ccc(C(F)(F)F)cc1` [compound 193], the IC50 against NLRP3 inflammasome is no more than 0.01 µM; in the experiment on IL-6, 5 to 10 µM.

Take `CN1CCC[C@@H](Nc2cc(C(F)(F)F)c(-c3ccc(Cl)cc3)nn2)C1` [compound 194]: the IC50 was no more than 0.01 µM against NLRP3 inflammasome and greater than 10 µM with IL-6.

Regarding `CCN1CCC[C@@H](Nc2cc(C(F)(F)F)c(-c3ccc(F)cc3)nn2)C1` [compound 195], the results for the concentration for half-maximal inhibition (IC50) against NLRP3 inflammasome and in the experiment on IL-6 were 0.01 to 0.05 µM and greater than 10 µM, respectively.

Turning to `CN1CCC[C@@H](Nc2nnc(-c3ccc(Cl)cc3)cc2C(F)(F)F)C1` [compound 196], the 50% inhibitory concentration (IC50) against NLRP3 inflammasome lay within 0.5 to 1 µM; in the experiment with IL-6, 1 to 5 µM.

On to `CCN1CCC[C@@H](Nc2nnc(-c3ccc(F)cc3)cc2C(F)(F)F)C1` [compound 197], for which the half-inhibitory concentration (IC50) at NLRP3 inflammasome was greater than 1 µM; with IL-6, greater than 10 µM.

Regarding `Cc1cc(C(F)(F)F)ccc1-c1nnc(N[C@@H]2CCCN(C)C2)cc1O` [compound 198], the concentration for half-maximal inhibition (IC50) on NLRP3 inflammasome is 0.5 to 1 µM; with IL-6, greater than 10 µM.

As for `Cc1cc(C(F)F)ccc1-c1ccc(N[C@@H]2CCCN(C)C2)nn1` [compound 199], the IC50 was 0.05 to 0.1 µM against NLRP3 inflammasome and greater than 10 µM with IL-6.

Regarding `Cc1cc(Cl)ccc1-c1nnc(N[C@@H]2CCCN(C(C)C)C2)cc1C` [compound 200], the IC50 against NLRP3 inflammasome was no more than 0.01 µM; with IL-6, greater than 10 µM.

Take `CCN1CCC[C@@H](Nc2cc(C)c(-c3ccc(Cl)cc3C)nn2)C1` [compound 201]: the results for the IC50 against NLRP3 inflammasome and in the experiment with IL-6 were no more than 0.01 µM and greater than 10 µM, respectively.

Turning to `Cc1cc(N(C)[C@@H]2CCCN(C)C2)nnc1-c1ccc(Cl)cc1` [compound 202], the IC50 is 0.1 to 0.5 µM against NLRP3 inflammasome and greater than 10 µM in the experiment on IL-6.

On to `Cc1cc(N[C@@H]2CCCN(C)C2)nnc1-c1ccc(F)cc1C(F)F` [compound 203], for which the IC50 on NLRP3 inflammasome is 0.01 to 0.05 µM; with IL-6, greater than 10 µM.

On to `Cc1cc(Cl)ccc1-c1nnc(N(C)[C@@H]2CCCN(C)C2)cc1C` [compound 204], for which the IC50 against NLRP3 inflammasome was 0.5 to 1 µM; with IL-6, greater than 10 µM.

`Cc1cc(O[C@@H]2CCCN(C)C2)nnc1-c1ccc(Cl)cc1` [compound 210]: the IC50 was 0.1 to 0.5 µM against NLRP3 inflammasome and greater than 10 µM with IL-6.
